Results from PMC9570594, “Development of Novel Pyridine-Thiazole Hybrid Molecules as Potential Anticancer Agents” (Molecules, 2022).
Like-named read-outs stand apart in the source and are kept apart here.

Legend:
A549 (lung) = test: MTT assay of cell viability; conditions: Homo sapiens, A549, 72 h
[1] = tested on: human epidermal keratinocytes of HaCaT line; test: MTT assay of cell viability; conditions: 72 h
SK-OV-3 (ovarian) = test: MTT assay of cell viability; conditions: Homo sapiens, SK-OV-3, 72 h
[2] = tested on: panel of cancer cell lines; test: MTT assay, summary over the tumor cell lines; conditions: 72 h; for IC50: Homo sapiens, read-out: IC50 toward tumor cells (depending on tumor cell line)
HCT-116 (colon) = test: MTT assay of cell viability
[3] = tested on: murine macrophages of J774.2 line; test: MTT assay of cell viability; conditions: Mus musculus, J774.2, 72 h
Jurkat (leukemia) = test: MTT assay of cell viability; conditions: Homo sapiens, 72 h
MCF-7 (breast) = test: MTT assay of cell viability
[4] = tested on: HCT-116 p53 (−/−) colon cancer cells; test: MTT assay of cell viability; conditions: Homo sapiens, HCT-116, 72 h
Description: The cell lines used in our work were kindly provided by a Collection at the Institute of Molecular Biology and Genetics, National Academy of Sciences of Ukraine (Kyiv, Ukraine).

KB3-1 (cervix) = test: MTT assay of cell viability
KB3-1 cells = test: Fluorescent microscopy of morphological changes (Hoechst 33342/PI); format: cell-based, human; conditions: 48 h
Description: In addition, we observed multinucleated giant cells. […] The condensed chromatin, a characteristic feature of apoptosis, and dead cells were observed under the action of all studied compounds.
KB3-1 cells were seeded in the 12-well plates (CytoONE, STARLAB International GmbH, Hamburg, Germany) on glass microscopic slides and incubated overnight. Studied compounds were added to cells in the following concentrations: the compounds 3, 4 and cisplatin—5 µM/mL, doxorubicin—1 µM/mL. Cells were incubated for the next 48 h. Chromatin material of living and apoptotic cells was stained with the DNA-specific fluorescent dye Hoechst 33342 (Sigma-Aldrich, Burlington, MA, USA) and the DNA/RNA-specific fluorescent dye Propidium iodide (PI, Sigma, Burlington, MA, USA). Fluorochromes were added to cultured cells at final concentrations 0.2–0.5 μg/mL for Hoechst 33342 and 0.1 μg/mL—for PI. Images were made with a fluorescent Zeiss microscope (Carl Zeiss, Oberkochen, Germany). Magnification ×400. Microphotographs were additionally analyzed using ImagePro7N software.

[5] = tested on: human embryonic kidney HEK293 cells; test: MTT assay of cell viability; conditions: HEK293, 72 h
[6] = tested on: HL-60 cells of the acute human promyelocytic leukemia; test: MTT assay of cell viability
[7] = tested on: pseudo-normal cell lines (HEK293, HaCaT); test: MTT assay, summary over pseudo-normal cell lines; conditions: Homo sapiens, 72 h, read-out: IC50 towards pseudo-normal cell lines
[8] = tested on: BALB-3T3 (normal mouse fibroblasts); test: MTT assay of cell viability; conditions: BALB/3T3, 72 h
MCF-7 cells [9] = test: PARP-1 inhibition in vitro: MTT after Fluzoparib pretreatment; format: cell-based, human; conditions: for IC50: Homo sapiens, MCF7
Description: Taking into account the above data, PARP1 inhibition in vitro was investigated using pretreatment of the MCF-7 cells with the Fluzoparib, a potent PARP1 inhibitor in the non-toxic concentrations of 5, 10, and 15 µM. It had no significant growth inhibitory effect in such doses, and a reduction of cell viability by only 10–12% was observed compared to control (non-treated) cells. […] The preincubation step was used to bind PARP1 molecules, which were the potential targets of the studied compounds and to test if it would affect the activity of 3 and 4. […] The preincubation of cells with the Fluzoparib decreased their sensitivity to the compound 3 treatment in a less pronounced manner, compared with the effect of the compound 4. […] Changes in structure of the started compound 3 may cause an enhancement of the ability of molecule 4 to inhibit the activity of PARP1.
To determine PARP inactivation, the MCF-7 cells were pretreated for 2 h in the non-toxic concentrations of 5, 10, 15 µM of the Fluzoparib (Med Chem Express, Monmouth Junction, NJ, USA), a potent PARP1 inhibitor used in the chemotherapy. Then, the medium was removed and increasing doses of the compounds 3 and 4 were added and cells were incubated for the next 72 h. The IC50 values of compounds were determined by the MTT assay, as described.

HL-60(TB) (Leukemia) = test: NCI one-dose SRB assay; format: cell-based, human; conditions: 10 μM, 48 h
[10] = tested on: MDA-MB-468 (Brest Cancer); test: NCI one-dose SRB assay; format: cell-based, human; conditions: 10 μM, 48 h
MDA-MB-435 (Melanoma) = test: NCI one-dose SRB assay; format: cell-based, human; conditions: 10 μM, 48 h
[11] = tested on: panel of 60 cancer cell lines; test: NCI DTP one-dose primary anticancer assay (10^-5 M, SRB); conditions: 10 μM
Description: (§1) Primary anticancer assays (Table 3) on a panel of 60 cancer cell lines at one dose-assay (10^−5 M) were performed according to the NCI protocol, as described elsewhere [31, 32, 33, 34, 35].
(§2) A primary anticancer assay was performed on a panel of approximately sixty human tumor cell lines derived from nine neoplastic diseases, in accordance with the protocol of the Drug Evaluation Branch, National Cancer Institute, Bethesda [31, 32, 33, 34, 35]. Tested compounds were added to the culture at a single concentration (10^−5 M) and the cultures were incubated for 48 h. End point determinations were made with a protein binding dye, Sulphorhodamine B (SRB). […] The percentage growth was evaluated spectrophotometrically versus controls not treated with test agents.

CCRF-CEM (Leukemia) = test: NCI one-dose SRB assay; format: cell-based, human; conditions: 10 μM, 48 h
[12] = tested on: NCI-H522 (Non-Small Cell Lung Cancer); test: NCI one-dose SRB assay; conditions: 10 μM, 48 h
Description: as §1, §2

SR (Leukemia) = test: NCI one-dose SRB assay; conditions: 10 μM, 48 h
Description: as §1, §2

K-562 (Leukemia) = test: NCI one-dose SRB assay; conditions: 10 μM, 48 h
Description: as §1, §2

[13] = tested on: MCF-7 breast cancer cells; test: Annexin V-FITC/PI binding assay (flow cytometry); conditions: MCF-7, 5 µM, 24 h; control 4.4 ± 0.6%
Description: Annexin V-FITC and Propidium Iodide were used for apoptosis measurement.
Apoptosis was determined, as described [42], using Annexin V-FITC binding by means of the FITC Annexin V Apoptosis Detection Kit II(BD Biosciences, San Diego, CA, USA) according to the manufacturer’s instruction. Cells (10,000 cell measured) were analyzed in a BD FACSCanto II flow cytometer (BD Biosciences, San Diego, CA, USA). Annexin V binds with high affinity to phosphatidylserine, and thus, can be used to identify cells in all stages of the programmed cell death. Propidium iodide (PI) exclusively stains cells with a disrupted cell membrane and can be used to identify late apoptotic and dead cells. Cells cultured in a drug-free medium were used as controls. […] The contents of the test tubes were gently vortexed and incubated for 15 min at room temperature, protected from light. After the required time, the contents of the test tubes were made up to 500 µL with the Binding Buffer and immediately analyzed in a flow cytometer. The ratio of the apoptotic cells (early and late) was measured as: a percentage of cells from the upper right square (color red) to percentage of cells from the lower right square (color blue). Analysis was performed using the BD FACSCanto II flow cytometer, and the results were analyzed with FACSDiva software (both from BD Biosciences Systems, San Jose, CA, USA). […]

[14] = tested on: MCF-7 breast cancer cells; test: Mitochondrial membrane potential, JC-1 (flow cytometry); format: cell-based, human; conditions: MCF-7, 5 µM, 24 h, control 5.1 ± 0.7%
Description: A decrease in the mitochondrial membrane potential (MMP, ΔΨm) is one of the earliest changes observed at apoptosis. […] The MCF-7 cells had depolarized mitochondria, reaching 25.3 ± 1.5% and 24.7 ± 0.4% of the cell population treated with the compound 4 and 7, respectively. In the control, there were only 5.1 ± 0.7% cells with a decreased ΔΨm.
Disruption of the MMP was assessed using the lipophilic cationic probe 5,5,6,6-tetrachloro-1,1,3,3-tetraethylbenzimidazolcarbocyanine iodide (JC-1 MitoScreen kit; BD Biosciences San Diego, CA, USA), as described previously. The entire assay was performed according to the manufacturer’s instructions provided with the purchased kit. […] Briefly, unfixed MCF-7 cells were washed and resuspended in the PBS supplemented with the JC-1 dye. Then, cells were incubated for 15 min at room temperature (RT) in the dark, washed, and resuspended in the PBS for the immediate BD FACSCanto II flow cytometry analysis.

MCF-7 cells [15] = test: Clonogenic assay; format: cell-based, human; conditions: MCF-7, positive control, concentration not given, 10 days
Description: This assay essentially tests every cell in the population for its ability to undergo “unlimited” division. […] At 1 µM concentration, it reduced the ability of the MCF-7 single cell to grow into a colony to 36%. […] With a concentration equivalent to 10 µM of the compound 4, the DMSO increased the cell’s ability to grow in colony.
MCF-7 cells were seeded in triplicate in 6-well plates (CytoONE, STARLAB International GmbH, Germany) at a density of 500 cells per well. After 24 h incubation, the compound 4 was added in 1 and 10 μM concentrations and cells were treated for 10 days. Colonies containing ≥ 50 cells were fixed with 50% (v/v) methanol in the PBS and stained with crystal violet (Sigma-Aldrich, Burlington, MA, USA). Stained colonies were counted and expressed as a fraction of the untreated control.

[16] = Homo sapiens, HCT-116, 72 h, HCT-116, 72 h of incubation, M ± SD
[17] = Homo sapiens, MCF7, 72 h, MCF-7, 72 h of incubation, M ± SD
[18] = Homo sapiens, KB 3-1, 72 h, KB3-1, 72 h of incubation, M ± SD
[19] = HL-60, 72 h of incubation, M ± SD
[20] = HCT-116, 72 h of incubation, M ± SD
[21] = MCF-7, 72 h of incubation, M ± SD

CC(=O)c1sc(Nc2ccccn2)nc1C [Compound 2, 1-[4-Methyl-2-(2-pyridylamino)thiazol-5-yl]ethanone]
IC50 (A549 (lung)): > 50 µM | IC50 [1]: > 50 µM | IC50 (SK-OV-3 (ovarian)): > 50 µM | IC50 [2]: > 50 µM | IC50 (HCT-116 (colon); [16]): > 50 µM | IC50 [3]: > 50 µM | IC50 (Jurkat (leukemia)): > 50 µM | IC50 (MCF-7 (breast); [17]): > 50 µM | IC50 [4]: > 50 µM | IC50 (KB3-1 (cervix); [18]): 38 ± 1.9 µM

Cc1nc(Nc2ccccn2)sc1C(=O)/C=C/c1ccccc1F [Compound 3, (E)-3-(2-Fluorophenyl)-1-[4-methyl-2-(2-pyridylamino)-thiazol-5-yl]-2-propen-1-one]
IC50 (A549 (lung)): 4.56 ± 0.22 µM | morphological changes (KB3-1 cells; KB3-1, 5 µM): significantly less DNA damage | IC50 [5]: > 50 µM | IC50 [6, 19]: 0.57 ± 0.35 µM | IC50 [7]: > 50 µM | IC50 [1]: > 50 µM | IC50 [8]: 7.18 ± 0.21 µM | IC50 (SK-OV-3 (ovarian)): > 50 µM | IC50 [2]: 0.57 to 7.8 µM | IC50 (HCT-116 (colon); [20]): 2.9 ± 1.03 µM | IC50 [3]: > 50 µM | IC50 (MCF-7 cells [9]; MCF-7, compound alone (no preincubation), 72 h MTT, read-out: IC50): 3.9 µM | IC50 (Jurkat (leukemia)): 5.2 ± 0.1 µM | IC50 (MCF-7 (breast); [21]): 1.86 ± 0.9 µM | IC50 [4]: 2.81 ± 0.16 µM | IC50 (KB3-1 (cervix); [18]): 7.42 ± 0.22 µM

Cc1nc(Nc2ccccn2)sc1C1=NNC(c2ccccc2F)C1 (centres unmarked) [Compound 5, {5-[5-(2-Fluorophenyl)-4,5-dihydro-1H-pyrazol-3-yl]-4-methylthiazol-2-yl}-(pyridin-2-yl)-amine]
Growth % (HL-60(TB) (Leukemia)): 4.96% | IC50 (A549 (lung)): 33.1 ± 1.32 µM | IC50 [5]: 45.4 ± 2.26 µM | Growth % [10]: −13.74% | Growth % (MDA-MB-435 (Melanoma)): −17.91% | Range of Growth, % ([11]; 48 h, 60 cell lines): −18.90–118.83% | Positive Cytostatic Effect ([11]; number of cell lines with percent growth from 0 to 50 / total number of cell lines): 25/60 | Positive Cytotoxic Effect ([11]; number of cell lines with percent growth of <0 / total number of cell lines): 3/60 | IC50 [1]: > 50 µM | Growth % (CCRF-CEM (Leukemia)): 19.12% | Growth % [12]: −18.90% | IC50 [8]: 34.2 ± 1.7 µM | IC50 (SK-OV-3 (ovarian)): > 50 µM | IC50 (HCT-116 (colon); [16]): > 50 µM | IC50 [3]: > 50 µM | IC50 (Jurkat (leukemia)): > 50 µM | IC50 (MCF-7 (breast); [17]): > 50 µM | Growth % (SR (Leukemia)): 12.44% | Growth % (K-562 (Leukemia)): 15.13% | IC50 [4]: 34.5 ± 1.02 µM | IC50 (KB3-1 (cervix); [18]): 13.1 ± 0.52 µM

CS(=O)(=O)O.Cc1nc(Nc2ccccn2)sc1C(=O)/C=C/c1ccccc1F [Compound 7, (E)-3-(2-Fluorophenyl)-1-[4-methyl-2-(pyridin-1-ium-2-ylamino)thiazol-5-yl]-2-propen-1-one Methanesulfonate]
IC50 [6, 19]: > 10 µM | apoptotic cells (sum of early and late apoptotic cells) [13]: 31.0 ± 1.9% | IC50 toward tumor cells (depending on tumor cell line) ([2]; summary over tumor cell lines, MTT): acted more weakly compared with 3 and 4 | IC50 (HCT-116 (colon); [20]): 7.27 ± 0.27 µM | cells with depolarized mitochondria (decreased ΔΨm) [14]: 24.7 ± 0.4% | IC50 (MCF-7 (breast); [21]): 4.3 ± 0.98 µM | IC50 (KB3-1 (cervix); KB3-1, 72 h of incubation, M ± SD): 3.96 ± 1.23 µM

COc1cccc2c1C(=O)c1c(O)c3c(c(O)c1C2=O)C[C@@](O)(C(=O)CO)C[C@@H]3O[C@H]1C[C@H](N)[C@H](O)[C@H](C)O1 [Doxorubicin, reference compound]
IC50 (A549 (lung)): 2 ± 0.35 µM | morphological changes (KB3-1 cells; KB3-1, 1 µM): induced cell membrane damage and membrane blebbing to a greater extent | IC50 [5]: 1.29 ± 0.87 µM | IC50 ([6]; Homo sapiens, HL-60, 72 h): 0.38 ± 0.5 µM | IC50 [1]: > 10 µM | IC50 [8]: 3.18 ± 0.25 µM | IC50 (SK-OV-3 (ovarian)): 3.2 ± 0.1 µM | IC50 (HCT-116 (colon); Homo sapiens, HCT-116, 72 h): 0.9 ± 0.09 µM | IC50 [3]: 1.74 ± 1.1 µM | ability of single cell to grow into a colony (compared with control) (MCF-7 cells [15]): 3% | IC50 (Jurkat (leukemia)): 1.17 ± 0.12 µM | IC50 (MCF-7 (breast); Homo sapiens, MCF7, 72 h): 1.04 ± 0.8 µM | IC50 [4]: 1.19 ± 1.3 µM | IC50 (KB3-1 (cervix); Homo sapiens, KB 3-1, 72 h): 4 ± 1.3 µM

O=C(c1cc(Cc2n[nH]c(=O)c3ccccc23)ccc1F)N1CCn2nc(C(F)(F)F)nc2C1 [Fluzoparib, reference compound]
IC50 (MCF-7 cells [9]): 47 µM | reduction of cell viability (MCF-7 cells [9]; MCF-7, 5, 10 and 15 µM, compared to non-treated cells): 10–12%

N.N.[Cl][Pt][Cl] [cisplatin, reference compound]
morphological changes (KB3-1 cells; KB3-1, 5 µM): significantly less DNA damage
